Assay results from patent US20170168073A1, “CHALCONE-UREA DERIVATIVES AS INSULIN SENSORS” (Agency for Science, Technology and Research, priority 2013, published 2017).

Experiments:
[1] = biological target: insulin (Homo sapiens, UniProt P01308); experiment: Fluorescence response of CLU compounds to insulin; assay type: binding
Method: All the reagents and solvents were purchased from Aldrich, Alfa and Acros organics and used without further purification. All reactions were performed in oven-dried glassware under a positive pressure of nitrogen. Analytical TLC was carried out on Merck 60 F254 silica gel plate (0.25 mm layer thickness) and visualization was done with UV light. Column chromatography was performed on Merck 60 silica gel (230-400 mesh). NMR spectra were recorded on a Bruker Avance 300 NMR spectrometer. Chemical shifts are reported as 6 in units of parts per million (ppm) and coupling constants are reported as a J value in Hertz (Hz). Mass of all the compounds was determined by LC-MS of Agilent Technologies with an electrospray ionization source. Spectroscopic measurements were performed on a fluorometer and UV/VIS instrument, Synergy 4 of bioteck company and Gemini XS fluorescence plate reader. The slit width was 1 nm for both excitation and emission.
The present invention includes the synthesis of fluorescent chalcone-urea library (CLU), which was prepared on solid support. The CLU library was screened against four different concentrations of insulin (0.2, 0.1, 0.05 and 0.025 mg/mL) in HEPES buffer (20 mM, pH=7.4). Based on fluorescent intensity, 5 hits with more than 50-fold increase were selected (Table 2). CLU-381 was further derivatized due to the synthetic convenience to render 8 derivatives (Table 3).

[2] = test system: serum albumin; experiment: Selectivity of fluorescence response to insulin over serum albumins (BSA, HSA, HSA lipid free); assay type: binding; conditions: over serum albumin (BSA, HSA, HSA lipid free; FIG. 1c)
Source text: FIG. 1c is a graph showing the selectivity of Insulin Green to insulin over bovine serum albumin (BSA), human serum albumin (HSA) and HSA lipid free.

Chain of insulin (P01308 25-54 limits assumed, species assumed): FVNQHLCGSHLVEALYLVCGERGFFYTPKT
Chain of insulin (P01308 90-110 limits assumed, species assumed): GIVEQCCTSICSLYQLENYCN

## COc1ccc(CNC(=O)Nc2ccc(C(=O)/C=C/c3ccc(N(CCO)CCO)cc3)cc2)cc1 [Insulin Green]
[1]; 200 μg/mL insulin (FIG. 1a)
  fluorescent increase to insulin: 94 fold
[1]; 8 derivatives tested against insulin
  responsiveness to insulin among the 8 CLU-381 derivatives: most responsive compound
[2]
  selectivity for insulin over other proteins: good selectivity over other proteins
